Columns and labels:
[1] = target: T1, human adenosine A2A receptor (Homo sapiens, UniProt P29274); test: Human adenosine A2A receptor [3H]-SCH-583261 binding assay (SPA, CHO cell membranes); conditions: [3H]-SCH-583261 1 nM, membranes of CHO cells expressing the recombinant receptor, Ki by Cheng-Prussoff equation; for Ki: read-out: hA2 (pKi) (converted)
T1 construct: expressed in transfected cells; host or cells: CHO cells, semliki forest virus expression system; membrane preparation
Protocol: Human Adenosine A2A Receptor
The human adenosine A2A receptor was recombinantly expressed in chinese hamster ovary (CHO) cells using the semliki forest virus expression system. Cells were harvested, washed twice by centrifugation, homogenised and again washed by centrifugation. The final washed membrane pellet was suspended in a Tris (50 mM) buffer containing 120 mM NaCl, 5 mM KCl, 2 mM CaCl2 and 10 mM MgCl2 (pH 7.4) (buffer A). The [^3H]-SCH-583261 (Dionisotti et al., 1997, Br J Pharmacol 121, 353; 1 nM) binding assay was carried out in 96-well plates in the presence of 2.5 μg of membrane protein, 0.5 mg of Ysi-poly-1-lysine SPA beads and 0.1 U adenosine deaminiase in a final volume of 200 μl of buffer A. Non-specific binding was defined using xainthine amine congener (XAC; 2 μM). Compounds were tested at 10 concentrations from 10 μM-0.3 nM. All assays were conducted in duplicate and repeated at least two times. Assay plates were incubated for 1 hour at room temperature before centrifugation and then bound ligand determined using a Packard Topcount scintillation counter. IC50 values were calculated using a non-linear curve fitting program and Ki values calculated using the Cheng-Prussoff equation.

T1 sequence (P29274 whole entry): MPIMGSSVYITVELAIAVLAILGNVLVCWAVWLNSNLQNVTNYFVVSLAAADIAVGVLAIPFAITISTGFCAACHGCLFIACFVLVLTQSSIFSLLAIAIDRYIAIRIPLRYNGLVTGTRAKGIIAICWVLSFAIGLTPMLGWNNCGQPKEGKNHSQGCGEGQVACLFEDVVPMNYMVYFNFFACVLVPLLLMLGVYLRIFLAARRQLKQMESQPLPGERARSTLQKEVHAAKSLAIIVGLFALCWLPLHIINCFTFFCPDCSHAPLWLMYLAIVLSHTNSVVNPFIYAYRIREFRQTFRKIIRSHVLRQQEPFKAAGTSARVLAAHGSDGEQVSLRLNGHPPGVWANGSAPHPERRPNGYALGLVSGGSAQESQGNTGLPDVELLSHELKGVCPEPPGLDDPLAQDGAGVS

SMILES | melting point [°C] | Ki [1] [nM] | hA2 (pKi) [1]
CCSCc1cc(C(=O)Nc2nc3c(OC)ccc(N4CCOCC4)c3s2)ccn1 [Example 103, 2-Ethylsulfanylmethyl-N-(4-methoxy-7-morpholin-4-yl-benzothiazol-2-yl)-isonicotinamide] | 158 to 159 | 1.58 | –
COc1ccc(N2CCOCC2)c2sc(NC(=O)c3ccnc(CN(C)C(C)=O)c3)nc12 [Example 108, 2-[(Acetyl-methyl-amino)-methyl]-N-(4-methoxy-7-morpholin-4-yl-benzothiazol-2-yl)-isonicotinamide] | 228 to 230 | – | –
COC[C@H]1CCN(Cc2cc(C(=O)Nc3nc4c(OC)ccc(N5CCOCC5)c4s3)ccn2)C1 [Example 106, (S)-2-(3-Methoxymethyl-pyrrolidin-1-ylmethyl)-N-(4-methoxy-7-morpholin-4-yl-benzothiazol-2-yl)-isonicotinamide] | 93 to 96 | – | –
CCOCCN(C)Cc1cc(C(=O)Nc2nc3c(OC)ccc(N4CCOCC4)c3s2)ccn1 [Example 104, 2-{[(2-Ethoxy-ethyl)-methyl-amino]-methyl}-N-(4-methoxy-7-morpholin-4-yl-benzothiazol-2-yl)-isonicotinamide] | 159 to 160 | 3.16 | –
COc1ccc(N2CCOCC2)c2sc(NC(=O)c3ccnc(CN4CCC(O)CC4)c3)nc12 [Example 102, 2-(4-Hydroxy-piperidin-1-yl-methyl)-N-(4-methoxy-7-morpholin-4-yl-benzothiazol-2-yl)-isonicotinamide] | 125 | 2 | –
COc1ccc(N2CCOCC2)c2sc(NC(=O)c3ccnc(Cn4ccnc4C)c3)nc12 [Example 107, N-(4-Methoxy-7-morpholin-4-yl-benzothiazol-2-yl)-2-(2-methyl-imidazol-1-ylmethyl)-isonicotinamide] | 264 to 265 | – | –
COC[C@@H]1CCCN1Cc1cc(C(=O)Nc2nc3c(OC)ccc(N4CCOCC4)c3s2)ccn1 [Example 105, (S)-2-(2-Methoxymethyl-pyrrolidin-1-ylmethyl)-N-(4-methoxy-7-morpholin-4-yl-benzothiazol-2-yl)-isonicotinamide] | 110 to 113 | – | –
COCCNCc1cc(C(=O)Nc2nc3c(OC)ccc(N4CCOCC4)c3s2)ccn1 [Example 47, 2-[(2-Methoxy-ethylamino)-methyl]-N-(4-methoxy-7-morpholin-4-yl-benzothiazol-2-yl)-isonicotinamide] | – | 2.51 | –
COc1ccc(N2CCOCC2)c2sc(NC(=O)c3ccnc(NC4CCC4)c3)nc12 [Example 90, 2-Cyclobutylamino-N-(4-methoxy-7-morpholin-4-yl-benzothiazol-2-yl)-isonicotinamide] | – | 1.74 | –
COc1ccc(N2CCOCC2)c2sc(NC(=O)c3ccnc(N4CC(OC)C4)c3)nc12 [Example 75, 2-(3-Methoxy-azetidin-1-yl)-N-(4-methoxy-7-morpholin-4-yl-benzothiazol-2-yl)-isonicotinamide] | – | 1.91 | –
COc1ccc(N2CCOCC2)c2sc(NC(=O)c3ccnc(N4CCS(=O)(=O)CC4)c3)nc12 [Example 73, 2-(1,1-Dioxo-1l6-thiomorpholin-4-yl)-N-(4-methoxy-7-morpholin-4-yl-benzothiazol-2-yl)-isonicotinamide] | – | 1.82 | –
COc1ccc(N2CCOCC2)c2sc(NC(=O)c3ccnc(CNCCCC(=O)OC(C)(C)C)c3)nc12 [Example 62, 4-{[4-(4-Methoxy-7-morpholin-4-yl-benzothiazol-2-yl-carbamoyl)-pyridin-2-yl-methyl]-amino}-butyric Acid tert-Butyl Ester] | – | 1.58 | –
CCCCNCc1cc(C(=O)Nc2nc3c(OC)ccc(N4CCOCC4)c3s2)ccn1 [Example 52, 2-Butylaminomethyl-N-(4-methoxy-7-morpholin-4-yl-benzothiazol-2-yl)-isonicotinamide] | – | 1.58 | –
COc1ccc(N2CCOCC2)c2sc(NC(=O)c3ccnc(NCCN4CCOCC4)c3)nc12 [Example 18, N-(4-Methoxy-7-morpholin-4-yl-benzothiazol-2-yl)-2-(2-morpholin-4-yl-ethylamino)-isonicotinamide] | – | 0.617 | –
COc1ccc(N2CCCCC2)c2sc(NC(=O)c3ccnc(CN4CCOCC4)c3)nc12 [Example 71, N-(4-Methoxy-7-piperidin-1-yl-benzothiazol-2-yl)-2-morpholin-4-yl-methyl-isonicotinamide] | – | – | 8.7
COc1ccc(N2CCOCC2)c2sc(NC(=O)c3ccnc(NCCN(C)C)c3)nc12 [Example 88, 2-(2-Dimethylamino-ethylamino)-N-(4-methoxy-7-morpholin-4-yl-benzothiazol-2-yl)-isonicotinamide] | – | 0.457 | –
COc1ccc(C(=O)Nc2nc3c(OC)ccc(N4CCOCC4)c3s2)cn1 [Example 35, 6-Methoxy-N-(4-methoxy-7-morpholin-4-yl-benzothiazol-2-yl)-nicotinamide] | – | 2 | –
CCOC1CN(c2cc(C(=O)Nc3nc4c(OC)ccc(N5CCOCC5)c4s3)ccn2)C1 [Example 76, 2-(3-Ethoxy-azetidin-1-yl)-N-(4-methoxy-7-morpholin-4-yl-benzothiazol-2-yl)-isonicotinamide] | – | 1.74 | –
COc1ccc(N2CCOCC2)c2sc(NC(=O)c3ccnc(OCCN4CCCC4=O)c3)nc12 [Example 17, N-(4-Methoxy-7-morpholin-4-yl-benzothiazol-2-yl)-2-[2-(2-oxo-pyrrolidin-1-yl)-ethoxy]-isonicotinamide] | – | 2.34 | –
COc1ccc(N2CCOCC2)c2sc(NC(=O)c3ccnc(NC4CCCC4)c3)nc12 [Example 89, 2-Cyclopentylamino-N-(4-methoxy-7-morpholin-4-yl-benzothiazol-2-yl)-isonicotinamide] | – | 1.48 | –
COc1ccc(N2CCOCC2)c2sc(NC(=O)c3ccnc(CN4CCOCC4)c3)nc12 [Example 56, N-(4-Methoxy-7-morpholin-4-yl-benzothiazol-2-yl)-2-morpholin-4-ylmethyl-isonicotinamide] | – | 1.58 | –
COc1ccc(N2CCOCC2)c2sc(NC(=O)c3ccnc(NCc4ccccc4)c3)nc12 [Example 83, 2-Benzylamino-N-(4-methoxy-7-morpholin-4-yl-benzothiazol-2-yl)-isonicotinamide] | – | 1.74 | –
COC(=O)N(C)Cc1cc(C(=O)Nc2nc3c(OC)ccc(N4CCOCC4)c3s2)ccn1 [Example 65, [4-(4-Methoxy-7-morpholin-4-yl-benzothiazol-2-yl-carbamoyl)-pyridin-2-ylmethyl]-methyl-carbamic Acid Methyl Ester] | – | 3.16 | –
COc1ccc(N2CCOCC2)c2sc(NC(=O)c3ccnc(NCc4ccccn4)c3)nc12 [Example 13, N-(4-Methoxy-7-morpholin-4-yl-benzothiazol-2-yl)-2-[(pyridin-2-ylmethyl)-amino]-isonicotinamide] | – | 1.55 | –
COc1ccc(N2CCOCC2)c2sc(NC(=O)c3ccnc(NCCc4ccccn4)c3)nc12 [Example 8, N-(4-Methoxy-7-morpholin-4-yl-benzothiazol-2-yl)-2-(2-pyridin-2-yl-ethylamino)-isonicotinamide] | – | 1.78 | –
COc1ccc(N2CCOCC2)c2sc(NC(=O)c3ccnc(N(C)CCN(C)C)c3)nc12 [Example 99, 2-[(2-Dimethylamino-ethyl)-methyl-amino]-N-(4-methoxy-7-morpholin-4-yl-benzothiazol-2-yl)-isonicotinamide] | – | 0.603 | –
CCSc1cc(C(=O)Nc2nc3c(OC)ccc(N4CCOCC4)c3s2)ccn1 [Example 81, 2-Ethylsulfanyl-N-(4-methoxy-7-morpholin-4-yl-benzothiazol-2-yl)-isonicotinamide] | – | 2.4 | –

— patent US6620811B2, “Isonicotin- and nicotinamide derivatives of benzothiazoles” (Hoffmann-La Roche Inc., priority 2001, dated 2003)
